Data on 13 molecules can be found in ChEMBL document CHEMBL1137652, “Prevalence and expression of the plasmid-mediated quinolone resistance determinant qnrA1” (2007).

≈ marks a conversion by molar mass, not a printed value.

Assay [1] concerns Escherichia coli. Kind of assay: Antimicrobial activity against azide-resistant aac(6')-Ib-cr deficient Escherichia coli J53 qnrA1 bearing pHS4 transconjugant from Enterobacter cloacae 91 by agar dilution method. It is filed as functional.
Assay [2] relates to Escherichia coli. The assay is described as follows: Antimicrobial activity against azide-resistant Escherichia coli J53 by agar dilution method. It is filed as functional. On the technique in general: In agar dilution, organisms are placed on agar that contains the substance at set levels.
Assay [3] relates to Escherichia coli. Kind of assay: Antimicrobial activity against azide-resistant aac(6')-Ib-cr expressing Escherichia coli J53 qnrA1 bearing pHS6 transconjugant from Escherichia coli 650 by agar dilution method. The format is functional.
The subject of assay [4] is Escherichia coli. The assay is described as follows: Antimicrobial activity against azide-resistant aac(6')-Ib-cr expressing Escherichia coli J53 qnrA1 bearing pHS3 transconjugant from Citrobacter freundii 64 by agar dilution method. It is filed as functional.
For assay [5], the system named is Escherichia coli. The assay is described as follows: Antimicrobial activity against azide-resistant aac(6')-Ib-cr deficient Escherichia coli J53 qnrA1 bearing pHS5 transconjugant from Enterobacter cloacae 641 by agar dilution method. The format is functional.
Assay [6] concerns Enterobacter cloacae. Kind of assay: Antimicrobial activity Enterobacter cloacae 91 expressing plasmid-mediated quinolone resistance qnr A gene by agar dilution method. The format is functional.
Assay [7] deals with Escherichia coli. Kind of assay: Antimicrobial activity Escherichia coli 633 expressing plasmid-mediated quinolone resistance qnr A gene by agar dilution method. The format is functional.
Assay [8] deals with Escherichia coli. The assay is described as follows: microbe, parasite or virus in culture. Conditions: 650.
Description: (§1) Antimicrobial activity Escherichia coli 650 expressing plasmid-mediated quinolone resistance qnr A gene by agar dilution method
Assay [9] relates to Enterobacter cloacae. Kind of assay: Antimicrobial activity Enterobacter cloacae 641 expressing plasmid-mediated quinolone resistance qnr A gene by agar dilution method. The format is functional.
Assay [10] deals with Enterobacter cloacae. The assay is described as follows: Antimicrobial activity Enterobacter cloacae 63 expressing plasmid-mediated quinolone resistance qnr A gene by agar dilution method. It is filed as functional.
The next assay concerns Citrobacter freundii. Kind of assay: Antimicrobial activity Citrobacter freundii 64 expressing plasmid-mediated quinolone resistance qnr A gene by agar dilution method. The format is functional.
Assay [11] concerns Enterobacter cloacae. Kind of assay: Antimicrobial activity Enterobacter cloacae 113 expressing plasmid-mediated quinolone resistance qnr A gene by agar dilution method. The format is functional.
The test system of assay [12] is Escherichia coli. Kind of assay: Antibacterial activity against pKK232-8-HS5-transformed Escherichia coli HB101 transformants harboring promoter sequence of qnrA1 gene cloned with promoterless cat gene by agar dilution method. The format is functional.
Assay [13] concerns Escherichia coli. The assay is described as follows: Ratio of MIC for pKK232-8-HS6-transformed Escherichia coli HB101 transformants to MIC for pKK232-8-HS3-transformed Escherichia coli HB101 transformants. It is filed as functional.
Assay [14] deals with Escherichia coli. Kind of assay: Antibacterial activity against pKK232-8-HS3-transformed Escherichia coli HB101 transformants harboring promoter sequence of qnrA1 gene cloned with promoterless cat gene by agar dilution method. The format is functional.
Assay [15] deals with Escherichia coli. The assay is described as follows: Antibacterial activity against pKK232-8-HS4-transformed Escherichia coli HB101 transformants harboring promoter sequence of qnrA1 gene cloned with promoterless cat gene by agar dilution method. The format is functional.
Assay [16] has as its system Escherichia coli. The assay is described as follows: Antibacterial activity against pKK232-8-HS6-transformed Escherichia coli HB101 transformants harboring promoter sequence of qnrA1 gene cloned with promoterless cat gene by agar dilution method. It is filed as functional.
Assay [17] concerns Escherichia coli. Kind of assay: Ratio of MIC for pKK232-8-HS6-transformed Escherichia coli HB101 transformants to MIC for pKK232-8-HS4-transformed Escherichia coli HB101 transformants. It is filed as functional.
The subject of assay [18] is Escherichia coli. The assay is described as follows: Antibacterial activity against pKK232-8-tranformed Escherichia coli HB101 transformants harboring promoterless cat gene by agar dilution method. The format is functional.
Assay [19] relates to Escherichia coli. Kind of assay: Antibacterial activity against Escherichia coli HB101 by agar dilution method. The format is functional.
The test system of assay [20] is Escherichia coli. Kind of assay: Ratio of MIC for pKK232-8-HS6-transformed Escherichia coli HB101 transformants to MIC for pKK232-8-HS5-transformed Escherichia coli HB101 transformants. It is filed as functional.
The subject of assay [21] is Escherichia coli. The assay is described as follows: Antibacterial activity against Escherichia coli isolate 1B harboring qnrA1 and blaVEB1 genes by agar dilution method.
The test system of assay [22] is Escherichia coli. The settings on record: 650.
Description: as §1

`NCC[C@H](O)C(=O)N[C@@H]1C[C@H](N)[C@@H](O[C@H]2O[C@H](CN)[C@@H](O)[C@H](O)[C@H]2O)[C@H](O)[C@H]1O[C@H]1O[C@H](CO)[C@@H](O)[C@H](N)[C@H]1O` [AMIKACIN]: the MIC amounted to 4 µg/mL (≈ 6.83 µM) in the assay on Escherichia coli [1]; 0.5 µg/mL (≈ 0.854 µM) in the assay on Escherichia coli [2]; 2 µg/mL (≈ 3.42 µM) against Escherichia coli [3]; 2 µg/mL (≈ 3.42 µM) in the assay on Escherichia coli [4]; 4 µg/mL (≈ 6.83 µM) in the assay with Escherichia coli [5].

Take `CC1(C)S[C@@H]2[C@H](NC(=O)[C@H](N)c3ccccc3)C(=O)N2[C@H]1C(=O)O` [AMPICILLIN]: the MIC in the assay on Escherichia coli [1] was at least 512 µg/mL; against Escherichia coli [2], 8 µg/mL (≈ 22.9 µM); against Escherichia coli [3], 512 µg/mL (≈ 1470 µM); against Escherichia coli [4], 512 µg/mL (≈ 1470 µM); in the assay on Escherichia coli [5] it was at least 512 µg/mL.

Regarding `CO/N=C(\C(=O)N[C@@H]1C(=O)N2C(C(=O)O)=C(COC(C)=O)CS[C@H]12)c1csc(N)n1` [CEFOTAXIME], the MIC is 8 µg/mL (≈ 17.6 µM) with Escherichia coli [1]; 32 µg/mL (≈ 70.3 µM) in the assay on Enterobacter cloacae [6]; at most 0.06 µg/mL against Escherichia coli [2]; at least 128 µg/mL with Escherichia coli [7]; 1 µg/mL (≈ 2.2 µM) in the assay with Escherichia coli [8]; 0.125 µg/mL (≈ 0.274 µM) in the assay with Escherichia coli [3]. Further, the MIC in the assay with Enterobacter cloacae [9] was 32 µg/mL (≈ 70.3 µM); against Escherichia coli [4] it was at most 0.06 µg/mL; in the assay on Enterobacter cloacae [10], 64 µg/mL (≈ 141 µM); in the assay with Citrobacter freundii, 2 µg/mL (≈ 4.39 µM); in the assay on Enterobacter cloacae [11], 64 µg/mL (≈ 141 µM); with Escherichia coli [5], 8 µg/mL (≈ 17.6 µM).

With `CC(C)(O/N=C(\C(=O)N[C@@H]1C(=O)N2C(C(=O)[O-])=C(C[n+]3ccccc3)CS[C@H]12)c1csc(N)n1)C(=O)O` [CEFTAZIDIME], the MIC against Escherichia coli [1] stood at 8 µg/mL (≈ 14.6 µM); in the assay on Enterobacter cloacae [6], 128 µg/mL (≈ 234 µM); with Escherichia coli [2], 0.125 µg/mL (≈ 0.229 µM); in the assay on Escherichia coli [7], 4 µg/mL (≈ 7.32 µM); in the assay on Escherichia coli [8] it was 4 µg/mL (≈ 7.32 µM); against Escherichia coli [3], 0.125 µg/mL (≈ 0.229 µM). Besides, the MIC came to 64 µg/mL (≈ 117 µM) with Enterobacter cloacae [9]; 0.125 µg/mL (≈ 0.229 µM) against Escherichia coli [4]; 32 µg/mL (≈ 58.5 µM) with Enterobacter cloacae [10]; 4 µg/mL (≈ 7.32 µM) against Citrobacter freundii; 128 µg/mL (≈ 234 µM) against Enterobacter cloacae [11]; 32 µg/mL (≈ 58.5 µM) against Escherichia coli [5].

For `O=C(N[C@H](CO)[C@H](O)c1ccc([N+](=O)[O-])cc1)C(Cl)Cl` [CHLORAMPHENICOL], the MIC was 8 µg/mL (≈ 24.8 µM) against Escherichia coli [12]; 8 µg/mL (≈ 24.8 µM) against Escherichia coli [14]; 8 µg/mL (≈ 24.8 µM) with Escherichia coli [15]; 96 µg/mL (≈ 297 µM) with Escherichia coli [16]; 3 µg/mL (≈ 9.28 µM) with Escherichia coli [18]; 3 µg/mL (≈ 9.28 µM) with Escherichia coli [19]. Moreover, the Ratio in the assay with Escherichia coli [13], in the assay with Escherichia coli [17] and in the assay with Escherichia coli [20] was 12 each time.

As to `O=C(O)c1cn(C2CC2)c2cc(N3CCNCC3)c(F)cc2c1=O` [CIPROFLOXACIN], in the assay with Escherichia coli [21], the MIC is above 32 µg/mL.

Take `NC[C@H]1O[C@H](O[C@H]2[C@H](O)[C@@H](O[C@H]3O[C@H](CO)[C@@H](O)[C@H](N)[C@H]3O)[C@H](N)C[C@@H]2N)[C@H](O)[C@@H](O)[C@@H]1O` [KANAMYCIN]: the MIC was determined as 64 µg/mL (≈ 132 µM) in the assay on Escherichia coli [1]; 0.5 µg/mL (≈ 1.03 µM) against Escherichia coli [2]; 16 µg/mL (≈ 33 µM) against Escherichia coli [3]; 8 µg/mL (≈ 16.5 µM) with Escherichia coli [4]; 64 µg/mL (≈ 132 µM) against Escherichia coli [5].

Turning to `C[C@H]1COc2c(N3CCN(C)CC3)c(F)cc3c(=O)c(C(=O)O)cn1c23.C[C@H]1COc2c(N3CCN(C)CC3)c(F)cc3c(=O)c(C(=O)O)cn1c23.O` [LEVOFLOXACIN], the MIC came out at 0.19 µg/mL against Escherichia coli [1], 0.38 µg/mL with Escherichia coli [3], 0.19 µg/mL against Escherichia coli [4] and 0.19 µg/mL against Escherichia coli [5].

With `CN[C@@H]1[C@H](O[C@H]2[C@H](O[C@H]3[C@H](O)[C@@H](O)[C@H](N=C(N)N)[C@@H](O)[C@@H]3N=C(N)N)O[C@@H](C)[C@]2(O)C=O)O[C@@H](CO)[C@H](O)[C@H]1O` [STREPTOMYCIN], the MIC stood at 8 µg/mL (≈ 13.8 µM) in the assay with Escherichia coli [1]; 1 µg/mL (≈ 1.72 µM) in the assay on Escherichia coli [2]; 1 µg/mL (≈ 1.72 µM) against Escherichia coli [3]; 2 µg/mL (≈ 3.44 µM) against Escherichia coli [4]; 8 µg/mL (≈ 13.8 µM) in the assay with Escherichia coli [5].

As for `Cc1cc(NS(=O)(=O)c2ccc(N)cc2)no1` [SULFAMETHOXAZOLE], the MIC is at least 512 µg/mL against Escherichia coli [1]; at least 512 µg/mL in the assay with Enterobacter cloacae [6]; 8 µg/mL (≈ 31.6 µM) against Escherichia coli [2]; at least 512 µg/mL against Escherichia coli [7]; at least 512 µg/mL against Escherichia coli [8]; at least 512 µg/mL with Escherichia coli [3]. The MIC in the assay with Enterobacter cloacae [9], against Escherichia coli [4], with Enterobacter cloacae [10], in the assay on Citrobacter freundii, against Enterobacter cloacae [11] and in the assay with Escherichia coli [5] was at least 512 µg/mL in each case.

Turning to `NC[C@H]1O[C@H](O[C@H]2[C@H](O)[C@@H](O[C@H]3O[C@H](CO)[C@@H](O)[C@H](N)[C@H]3O)[C@H](N)C[C@@H]2N)[C@H](N)C[C@@H]1O` [TOBRAMYCIN], the MIC with Escherichia coli [1] stood at 8 µg/mL (≈ 17.1 µM); in the assay with Escherichia coli [2] it was 0.25 µg/mL (≈ 0.535 µM); in the assay with Escherichia coli [3], 8 µg/mL (≈ 17.1 µM); against Escherichia coli [4], 8 µg/mL (≈ 17.1 µM); in the assay on Escherichia coli [5], 8 µg/mL (≈ 17.1 µM).

Regarding `COc1cc(Cc2cnc(N)nc2N)cc(OC)c1OC` [TRIMETHOPRIM], the MIC was at least 512 µg/mL with Escherichia coli [1]; at most 0.06 µg/mL in the assay on Escherichia coli [2]; 0.25 µg/mL (≈ 0.861 µM) in the assay on Escherichia coli [3]; at most 0.06 µg/mL against Escherichia coli [4]; at least 512 µg/mL in the assay on Escherichia coli [5].

Take GENTAMICIN: the MIC in the assay with Escherichia coli [1] was 2 µg/mL; with Enterobacter cloacae [6], 8 µg/mL; against Escherichia coli [2], 0.25 µg/mL; in the assay on Escherichia coli [7], above 128 µg/mL; against Escherichia coli [3], 0.25 µg/mL; against Enterobacter cloacae [9] it was 4 µg/mL. The MIC in the assay with Escherichia coli [4] was 8 µg/mL; against Escherichia coli [22], above 128 µg/mL; in the assay on Enterobacter cloacae [10] it was 4 µg/mL; in the assay on Citrobacter freundii it was 32 µg/mL; in the assay on Enterobacter cloacae [11], 8 µg/mL; in the assay with Escherichia coli [5], 2 µg/mL.
